According to ChEMBL document CHEMBL5154901, “Development of Predictive Classification Models for Whole Cell Antimycobacterial Activity of Benzothiazinones” (J Med Chem, 2022):
Values after ≈ are worked out from the molar mass of the structure shown.

Experiments:
Mycolicibacterium vaccae = assay: Antimycobacterial activity against Mycobacterium vaccae (JMRC:STI:10670) assessed as reduction in bacterial growth incubated for 42 hrs by serial dilution method; format: functional
[1] = Cytotoxicity against human HeLa cells assessed as reduction in cell viability incubated for 72 hrs by methylene blue staining based colorimetric assay; format: toxicity
[2] = Mycolicibacterium vaccae, JMRC:STI:10670, read-out: MIC

Row | Compound | MIC (Mycolicibacterium vaccae; [2]) | CC50 at 72 h [1] | MIC (Mycolicibacterium vaccae)
1 | O=C(CN1CCN(c2nc(=O)c3cc(C(F)(F)F)cc([N+](=O)[O-])c3s2)CC1)N1CCOCC1 | 0.205 µM (≈ 0.0999 µg/mL) | – | –
2 | CN(CCCCCCO)c1nc(=O)c2cc(C(F)(F)F)cc([N+](=O)[O-])c2s1 | 0.0308 µM (≈ 0.0125 µg/mL) | 101 µM | –
3 | Cc1ccc([C@@]2(O)CCN(c3nc(=O)c4cc(C(F)(F)F)cc([N+](=O)[O-])c4s3)C2)cc1 | 0.0554 µM (≈ 0.025 µg/mL) | > 111 µM | –
4 | O=c1nc(N2CCn3cc(C(F)(F)F)nc3C2)sc2c([N+](=O)[O-])cc(C(F)(F)F)cc12 | 0.0838 µM (≈ 0.039 µg/mL) | > 107 µM | –
5 | O=c1nc(N2CC[C@@H](c3ccc(F)cc3)[C@H](CO)C2)sc2c([N+](=O)[O-])cc(C(F)(F)F)cc12 | 0.0128 µM (≈ 0.00619 µg/mL) | 35.8 µM | –
6 | CN(c1ccc(CN)cc1)c1nc(=O)c2cc(C(F)(F)F)cc([N+](=O)[O-])c2s1 | 3.8 µM (≈ 1.56 µg/mL) | – | –
7 | CN1CCN(c2nc(=O)c3cc(C(F)(F)F)cc([N+](=O)[O-])c3s2)CC1 | 0.267 µM (≈ 0.0999 µg/mL) | – | –
8 | O=c1nc(N2CC[C@](O)(c3ccc(F)cc3)[C@@H](O)C2)sc2c([N+](=O)[O-])cc(C(F)(F)F)cc12 | 0.0515 µM (≈ 0.025 µg/mL) | 73.3 µM | –
9 | O=c1nc(N2CCn3nncc3C2)sc2c([N+](=O)[O-])cc(C(F)(F)F)cc12 | 31.4 µM (≈ 12.5 µg/mL) | – | –
10 | N#Cc1cccc(N2CCN(c3nc(=O)c4cc(C(F)(F)F)cc([N+](=O)[O-])c4s3)CC2)c1 | 0.0347 µM (≈ 0.016 µg/mL) | > 108 µM | –
11 | Cn1c(-c2ccccc2)nc2c1CCN(c1nc(=O)c3cc(C(F)(F)F)cc([N+](=O)[O-])c3s1)C2 | 0.41 µM (≈ 0.2 µg/mL) | – | –
12 | CN(c1ccc(CCO)cc1)c1nc(=O)c2cc(C(F)(F)F)cc([N+](=O)[O-])c2s1 | 7.33 µM (≈ 3.12 µg/mL) | – | –
13 | O=c1nc(N2CCn3cc(-c4ccc(OC(F)(F)F)cc4)nc3C2)sc2c([N+](=O)[O-])cc(C(F)(F)F)cc12 | 1.4 µM (≈ 0.78 µg/mL) | – | –
14 | O=c1nc(N2CCn3nnc(-c4ccccc4)c3C2)sc2c([N+](=O)[O-])cc(C(F)(F)F)cc12 | 1.64 µM (≈ 0.778 µg/mL) | – | –
15 | CN1CCC(CCC2CCN(c3nc(=O)c4cc(C(F)(F)F)cc([N+](=O)[O-])c4s3)CC2)CC1 | 0.206 µM (≈ 0.0998 µg/mL) | – | –
16 | O=c1nc(N2CC[C@](O)(c3ccccc3)[C@@H](O)C2)sc2c([N+](=O)[O-])cc(C(F)(F)F)cc12 | 0.0267 µM (≈ 0.0125 µg/mL) | 73 µM | –
17 | O=c1nc(N2CCC(O)CC2)sc2c([N+](=O)[O-])cc(C(F)(F)F)cc12 | – | – | 1.1 10^3nM
18 | CN(c1ccc(CO)cc1)c1nc(=O)c2cc(C(F)(F)F)cc([N+](=O)[O-])c2s1 | 30.4 µM (≈ 12.5 µg/mL) | – | –
19 | COc1cc(OC)cc(N2CCN(c3nc(=O)c4cc(C(F)(F)F)cc([N+](=O)[O-])c4s3)CC2)c1 | 0.0624 µM (≈ 0.031 µg/mL) | > 101 µM | –

Row | Compound | MIC (Mycolicibacterium vaccae; [2]) | CC50 at 72 h [1] | MIC (Mycolicibacterium vaccae)
20 | O=c1nc(N2CC[C@@H](c3ccccc3)[C@H](O)C2)sc2c([N+](=O)[O-])cc(C(F)(F)F)cc12 | 0.0277 µM (≈ 0.0125 µg/mL) | > 93 µM | –
21 | CN(CCO)c1nc(=O)c2cc(C(F)(F)F)cc([N+](=O)[O-])c2s1 | 0.0716 µM (≈ 0.025 µg/mL) | 80.2 µM | –
22 | O=c1nc(N2CCN(CCc3ccccc3)CC2)sc2c([N+](=O)[O-])cc(C(F)(F)F)cc12 | 0.0172 µM (≈ 0.00799 µg/mL) | > 108 µM | –
23 | O=c1nc(N2CCC(Oc3ccc(OC(F)(F)F)cc3)CC2)sc2c([N+](=O)[O-])cc(C(F)(F)F)cc12 | 0.0579 µM (≈ 0.031 µg/mL) | > 93 µM | –
24 | O=c1nc(Nc2ccc(CCO)cc2)sc2c([N+](=O)[O-])cc(C(F)(F)F)cc12 | 15.2 µM (≈ 6.25 µg/mL) | – | –
25 | O=c1nc(N2CCN(c3ccc(O)cc3)CC2)sc2c([N+](=O)[O-])cc(C(F)(F)F)cc12 | 1.72 µM (≈ 0.778 µg/mL) | – | –
26 | CN1CCC(OC2CCN(c3nc(=O)c4cc(C(F)(F)F)cc([N+](=O)[O-])c4s3)CC2)CC1 | – | – | 6.6 10^3nM
27 | CN1CCN(C(=O)CCCC(=O)N2CCN(c3nc(=O)c4cc(C(F)(F)F)cc([N+](=O)[O-])c4s3)CC2)CC1 | 11.2 µM (≈ 6.23 µg/mL) | – | –
28 | CN(c1ccc2[nH]ncc2c1)c1nc(=O)c2cc(C(F)(F)F)cc([N+](=O)[O-])c2s1 | 0.949 µM (≈ 0.4 µg/mL) | – | –
29 | CN1CCN(C(=O)CCC(=O)N2CCN(c3nc(=O)c4cc(C(F)(F)F)cc([N+](=O)[O-])c4s3)CC2)CC1 | – | – | 5.8 10^3nM
30 | CN1CCN(C(=O)CC(C)(C)CC(=O)N2CCN(c3nc(=O)c4cc(C(F)(F)F)cc([N+](=O)[O-])c4s3)CC2)CC1 | 5.34 µM (≈ 3.12 µg/mL) | – | –
31 | O=c1nc(N2CCn3c(nnc3-c3ccccc3)C2)sc2c([N+](=O)[O-])cc(C(F)(F)F)cc12 | 0.0527 µM (≈ 0.025 µg/mL) | – | –
32 | O=c1nc(N2CCn3cc(-c4ccccc4)nc3C2)sc2c([N+](=O)[O-])cc(C(F)(F)F)cc12 | – | – | 53 10^3nM
33 | O=c1nc(N2CCn3cc(-c4ccc(F)c(F)c4)nc3C2)sc2c([N+](=O)[O-])cc(C(F)(F)F)cc12 | 0.0491 µM (≈ 0.025 µg/mL) | – | –
34 | O=c1nc(N2CCn3c(-c4ccccc4)cnc3C2)sc2c([N+](=O)[O-])cc(C(F)(F)F)cc12 | 0.0131 µM (≈ 0.0062 µg/mL) | – | –
35 | O=c1nc(N2CCc3[nH]c(-c4ccccc4)nc3C2)sc2c([N+](=O)[O-])cc(C(F)(F)F)cc12 | 52.8 µM (≈ 25 µg/mL) | – | –
36 | O=c1nc(N2CCn3cc(-c4ccc(F)cc4F)nc3C2)sc2c([N+](=O)[O-])cc(C(F)(F)F)cc12 | 0.196 µM (≈ 0.0998 µg/mL) | – | –
37 | O=c1nc(N2CCC(CO)CC2)sc2c([N+](=O)[O-])cc(C(F)(F)F)cc12 | 2 µM (≈ 0.779 µg/mL) | – | –
